In publication PMC10004634 (PLOS ONE, 2023):
Like-named read-outs stand apart in the source and are kept apart here.

Assays:
Assay in all cases: biochemical
Parameters in all cases: KINOMEscan scanMAX competition binding, DNA-tagged kinases, qPCR read-out, percent control at 300 nM
SRC = SRC (Homo sapiens, UniProt P12931)
DRAK1 = molecular target: T1, DRAK1 (Homo sapiens, UniProt Q9UEE5)
T1 construct: gene STK17A

CSNK1G2 = CSNK1G2 (Homo sapiens, UniProt P78368)
MLK1 = molecular target: T2, MLK1 (Homo sapiens, UniProt P80192)
T2 construct: gene MAP3K9
T2 sequence (P80192 whole entry): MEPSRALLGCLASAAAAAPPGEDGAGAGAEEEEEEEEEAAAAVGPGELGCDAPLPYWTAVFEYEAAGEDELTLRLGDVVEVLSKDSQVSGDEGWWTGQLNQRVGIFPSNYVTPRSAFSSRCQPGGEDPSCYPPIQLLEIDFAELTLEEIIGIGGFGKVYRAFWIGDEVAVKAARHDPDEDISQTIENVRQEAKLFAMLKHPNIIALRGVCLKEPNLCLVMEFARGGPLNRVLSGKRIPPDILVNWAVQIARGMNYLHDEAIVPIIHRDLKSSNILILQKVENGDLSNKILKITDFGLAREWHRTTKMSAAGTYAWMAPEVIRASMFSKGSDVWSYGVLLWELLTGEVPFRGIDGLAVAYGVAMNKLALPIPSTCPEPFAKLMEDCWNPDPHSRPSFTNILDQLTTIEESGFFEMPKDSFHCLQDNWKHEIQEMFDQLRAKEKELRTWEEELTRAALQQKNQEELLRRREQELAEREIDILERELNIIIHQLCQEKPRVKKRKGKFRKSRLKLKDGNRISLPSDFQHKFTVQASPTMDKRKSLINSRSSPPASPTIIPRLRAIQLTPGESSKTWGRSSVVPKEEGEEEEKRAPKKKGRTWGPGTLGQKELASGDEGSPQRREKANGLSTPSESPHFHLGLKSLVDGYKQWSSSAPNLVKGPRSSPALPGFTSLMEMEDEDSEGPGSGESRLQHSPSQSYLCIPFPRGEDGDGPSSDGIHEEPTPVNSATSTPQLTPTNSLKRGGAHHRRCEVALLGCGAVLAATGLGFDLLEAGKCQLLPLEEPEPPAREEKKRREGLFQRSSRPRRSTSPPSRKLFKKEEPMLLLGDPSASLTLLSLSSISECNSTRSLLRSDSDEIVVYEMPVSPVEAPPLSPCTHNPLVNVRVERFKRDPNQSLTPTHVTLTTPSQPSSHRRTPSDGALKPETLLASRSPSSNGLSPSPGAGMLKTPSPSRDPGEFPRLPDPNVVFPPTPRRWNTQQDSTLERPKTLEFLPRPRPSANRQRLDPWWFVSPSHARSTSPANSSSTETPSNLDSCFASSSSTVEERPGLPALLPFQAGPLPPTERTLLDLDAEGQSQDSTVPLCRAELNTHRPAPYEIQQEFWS

WEE2 = WEE2 (Homo sapiens, UniProt P0C1S8)
PKAC-alpha = molecular target: T3, PKAC-alpha (Homo sapiens, UniProt P17612)
T3 construct: gene PRKACA

AMPK-alpha2 = molecular target: T4, AMPK-alpha2 (Homo sapiens, UniProt P54646)
T4 construct: gene PRKAA2

NEK9 = NEK9 (Homo sapiens, UniProt Q8TD19)
CSNK1G1 = CSNK1G1 (Homo sapiens, UniProt Q9HCP0)
Sequence of CSNK1G1 (Q9HCP0 whole entry): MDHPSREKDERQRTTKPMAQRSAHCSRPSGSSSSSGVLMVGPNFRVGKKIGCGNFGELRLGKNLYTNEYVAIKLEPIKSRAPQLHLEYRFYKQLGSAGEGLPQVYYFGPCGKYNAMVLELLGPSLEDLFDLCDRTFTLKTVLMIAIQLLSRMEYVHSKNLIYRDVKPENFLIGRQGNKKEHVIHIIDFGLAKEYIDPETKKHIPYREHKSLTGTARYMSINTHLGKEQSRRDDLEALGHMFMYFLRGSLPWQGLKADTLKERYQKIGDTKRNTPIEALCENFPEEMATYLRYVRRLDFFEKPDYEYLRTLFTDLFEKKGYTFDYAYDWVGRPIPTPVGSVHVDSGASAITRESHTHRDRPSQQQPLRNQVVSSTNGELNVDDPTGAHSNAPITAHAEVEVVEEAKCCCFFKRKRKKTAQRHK

MRCKA = molecular target: T5, MRCKA (Homo sapiens, UniProt Q5VT25)
T5 construct: gene CDC42BPA

CDK7 = CDK7 (Homo sapiens, UniProt P50613)
GSK3B = GSK3B (Homo sapiens, UniProt P49841)
[1] = molecular target: T6, RPS6KA5(Kin.Dom.2-C-terminal) (Homo sapiens, UniProt O75582)
T6 construct: Kin.Dom.2-C-terminal

CHEK1 = CHEK1 (Homo sapiens, UniProt O14757)
Sequence of CHEK1 (O14757 whole entry): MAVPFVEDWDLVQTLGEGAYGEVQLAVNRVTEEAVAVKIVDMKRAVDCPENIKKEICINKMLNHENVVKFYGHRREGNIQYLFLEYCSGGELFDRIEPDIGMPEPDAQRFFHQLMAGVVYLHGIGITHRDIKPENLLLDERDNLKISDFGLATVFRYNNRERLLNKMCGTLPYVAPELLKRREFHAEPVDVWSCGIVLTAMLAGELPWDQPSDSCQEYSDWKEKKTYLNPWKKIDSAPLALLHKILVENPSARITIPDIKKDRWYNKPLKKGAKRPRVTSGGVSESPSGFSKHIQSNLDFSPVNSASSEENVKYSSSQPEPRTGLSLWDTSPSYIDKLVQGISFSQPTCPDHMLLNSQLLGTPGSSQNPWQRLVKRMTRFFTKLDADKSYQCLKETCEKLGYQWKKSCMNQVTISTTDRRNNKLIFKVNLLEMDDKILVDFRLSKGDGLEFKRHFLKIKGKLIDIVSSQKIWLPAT

FGFR4 = FGFR4 (Homo sapiens, UniProt P22455)
PRKD2 = PRKD2 (Homo sapiens, UniProt Q9BZL6)
Sequence of PRKD2 (Q9BZL6 whole entry): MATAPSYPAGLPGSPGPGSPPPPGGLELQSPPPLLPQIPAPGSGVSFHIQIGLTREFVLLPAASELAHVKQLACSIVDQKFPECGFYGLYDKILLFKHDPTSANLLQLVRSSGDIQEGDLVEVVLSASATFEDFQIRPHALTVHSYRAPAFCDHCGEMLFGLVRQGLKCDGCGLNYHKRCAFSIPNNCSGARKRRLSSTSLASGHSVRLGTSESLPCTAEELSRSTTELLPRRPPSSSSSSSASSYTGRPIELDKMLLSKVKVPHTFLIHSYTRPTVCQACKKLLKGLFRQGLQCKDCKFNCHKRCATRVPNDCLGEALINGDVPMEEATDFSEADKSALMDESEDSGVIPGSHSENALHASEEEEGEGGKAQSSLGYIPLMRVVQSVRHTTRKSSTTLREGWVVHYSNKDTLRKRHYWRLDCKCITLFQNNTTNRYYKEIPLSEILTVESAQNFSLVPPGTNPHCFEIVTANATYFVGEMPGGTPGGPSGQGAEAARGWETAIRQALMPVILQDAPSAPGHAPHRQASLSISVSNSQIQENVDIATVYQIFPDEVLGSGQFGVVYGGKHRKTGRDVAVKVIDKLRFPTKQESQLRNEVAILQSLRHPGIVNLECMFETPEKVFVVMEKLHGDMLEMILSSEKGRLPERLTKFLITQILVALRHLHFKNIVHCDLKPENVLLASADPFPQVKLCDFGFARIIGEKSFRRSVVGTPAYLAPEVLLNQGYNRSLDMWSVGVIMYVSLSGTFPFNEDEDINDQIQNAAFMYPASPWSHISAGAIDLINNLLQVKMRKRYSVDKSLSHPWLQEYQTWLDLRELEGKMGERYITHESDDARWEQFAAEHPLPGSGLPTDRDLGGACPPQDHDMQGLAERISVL

ASK2 = molecular target: T7, ASK2 (Homo sapiens, UniProt O95382)
T7 construct: gene MAP3K6

PAK4 = PAK4 (Homo sapiens, UniProt O96013)
MKK7 = molecular target: T8, MKK7 (Homo sapiens, UniProt O14733)
T8 construct: gene MAP2K7
T8 sequence (O14733 whole entry): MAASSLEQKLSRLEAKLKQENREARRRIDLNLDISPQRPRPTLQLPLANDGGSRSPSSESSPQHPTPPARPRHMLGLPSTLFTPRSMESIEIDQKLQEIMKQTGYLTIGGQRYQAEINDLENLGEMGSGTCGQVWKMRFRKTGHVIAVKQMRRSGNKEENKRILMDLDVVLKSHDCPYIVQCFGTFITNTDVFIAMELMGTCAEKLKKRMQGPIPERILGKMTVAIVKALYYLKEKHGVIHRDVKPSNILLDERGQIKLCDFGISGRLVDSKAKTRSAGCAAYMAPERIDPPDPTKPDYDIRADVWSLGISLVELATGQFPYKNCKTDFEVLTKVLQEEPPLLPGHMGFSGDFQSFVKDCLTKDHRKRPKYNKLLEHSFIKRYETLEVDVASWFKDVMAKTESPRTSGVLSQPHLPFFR

BMPR1A = BMPR1A (Homo sapiens, UniProt P36894)
PDPK1 = PDPK1 (Homo sapiens, UniProt O15530)
Sequence of PDPK1 (O15530 whole entry): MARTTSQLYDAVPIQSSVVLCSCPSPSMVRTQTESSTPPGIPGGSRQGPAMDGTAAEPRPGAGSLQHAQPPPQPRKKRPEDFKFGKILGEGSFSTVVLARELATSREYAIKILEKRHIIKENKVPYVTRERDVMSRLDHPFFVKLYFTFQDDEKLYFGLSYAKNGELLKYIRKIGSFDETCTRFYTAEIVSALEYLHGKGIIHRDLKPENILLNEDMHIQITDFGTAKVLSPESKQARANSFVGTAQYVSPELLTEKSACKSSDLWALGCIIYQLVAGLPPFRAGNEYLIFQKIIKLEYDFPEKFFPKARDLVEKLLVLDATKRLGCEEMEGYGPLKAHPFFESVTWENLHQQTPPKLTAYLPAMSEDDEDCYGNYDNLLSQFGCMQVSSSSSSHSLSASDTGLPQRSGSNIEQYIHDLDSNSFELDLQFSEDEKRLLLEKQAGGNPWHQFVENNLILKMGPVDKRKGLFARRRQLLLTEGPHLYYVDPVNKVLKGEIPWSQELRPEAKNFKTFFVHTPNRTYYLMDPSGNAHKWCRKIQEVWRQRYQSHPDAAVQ

p38-beta = molecular target: T9, p38-beta (Homo sapiens, UniProt Q15759)
T9 construct: gene MAPK11

ACVRL1 = ACVRL1 (Homo sapiens, UniProt P37023)
[2] = read-out: Percent control / Acalabrutinib
[3] = read-out: Percent control / Ibrutinib
[4] = read-out: Percent control / Tirabrutinib
[5] = read-out: Percent control / Zanubrutinib

Sequence of SRC (P12931 whole entry): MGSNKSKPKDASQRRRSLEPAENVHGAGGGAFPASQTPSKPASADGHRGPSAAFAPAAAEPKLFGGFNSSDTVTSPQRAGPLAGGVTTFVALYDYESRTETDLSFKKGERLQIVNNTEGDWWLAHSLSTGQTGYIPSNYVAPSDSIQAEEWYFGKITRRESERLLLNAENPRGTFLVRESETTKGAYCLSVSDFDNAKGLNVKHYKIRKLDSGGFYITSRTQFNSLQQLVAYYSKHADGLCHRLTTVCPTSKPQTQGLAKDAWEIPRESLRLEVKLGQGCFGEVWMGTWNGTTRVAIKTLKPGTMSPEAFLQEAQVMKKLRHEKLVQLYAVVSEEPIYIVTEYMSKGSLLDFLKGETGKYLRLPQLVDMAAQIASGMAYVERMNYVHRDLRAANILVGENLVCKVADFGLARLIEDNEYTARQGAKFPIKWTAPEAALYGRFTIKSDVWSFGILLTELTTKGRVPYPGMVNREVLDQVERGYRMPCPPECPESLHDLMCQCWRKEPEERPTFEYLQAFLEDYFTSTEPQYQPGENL
Sequence of CSNK1G2 (P78368 whole entry): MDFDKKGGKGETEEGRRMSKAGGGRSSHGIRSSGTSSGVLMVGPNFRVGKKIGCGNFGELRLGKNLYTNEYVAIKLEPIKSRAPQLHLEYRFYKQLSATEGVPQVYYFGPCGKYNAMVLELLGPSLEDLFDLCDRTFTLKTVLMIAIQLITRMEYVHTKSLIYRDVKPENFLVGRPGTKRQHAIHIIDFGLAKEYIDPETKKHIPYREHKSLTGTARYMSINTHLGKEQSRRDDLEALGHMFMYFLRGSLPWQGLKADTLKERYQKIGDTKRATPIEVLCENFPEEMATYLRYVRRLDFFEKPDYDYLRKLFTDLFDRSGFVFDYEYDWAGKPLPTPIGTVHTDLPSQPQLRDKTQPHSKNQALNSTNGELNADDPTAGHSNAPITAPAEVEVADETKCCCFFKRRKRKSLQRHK

For CC#CC(=O)N1CCC[C@H]1c1nc(-c2ccc(C(=O)Nc3ccccn3)cc2)c2c(N)nccn12 [Acalabrutinib], the remaining binding at 0.3 µM (SRC; [2]) was 99%, the remaining binding at 0.3 µM (DRAK1; [2]) was 95% and the remaining binding at 0.3 µM (CSNK1G2; [2]) was 87%. It also gave a remaining binding at 0.3 µM (MLK1; [2]) of 92%, a remaining binding at 0.3 µM (WEE2; [2]) of 89% and a remaining binding at 0.3 µM (PKAC-alpha; [2]) of 99%. The remaining binding at 0.3 µM (AMPK-alpha2; [2]) was 96%, the remaining binding at 0.3 µM (NEK9; [2]) was 82% and the remaining binding at 0.3 µM (CSNK1G1; [2]) was 90%. For the same compound, the remaining binding at 0.3 µM (MRCKA; [2]) was 96%, the remaining binding at 0.3 µM (CDK7; [2]) was 68% and the remaining binding at 0.3 µM (GSK3B; [2]) was 97%. The remaining binding at 0.3 µM [1, 2] was 92%, the remaining binding at 0.3 µM (CHEK1; [2]) was 88% and the remaining binding at 0.3 µM (FGFR4; [2]) was 91%. The remaining binding at 0.3 µM (PRKD2; [2]) was 70%, the remaining binding at 0.3 µM (ASK2; [2]) was 87% and the remaining binding at 0.3 µM (PAK4; [2]) was 93%.

In the case of C=CC(=O)N1CCC[C@@H](n2nc(-c3ccc(Oc4ccccc4)cc3)c3c(N)ncnc32)C1 [Ibrutinib], the remaining binding at 0.3 µM (DRAK1; [3]) was 74%, the remaining binding at 0.3 µM (WEE2; [3]) was 93% and the remaining binding at 0.3 µM (AMPK-alpha2; [3]) was 97%. It also gave a remaining binding at 0.3 µM (NEK9; [3]) of 94%, a remaining binding at 0.3 µM (MKK7; [3]) of 8.1% and a remaining binding at 0.3 µM (BMPR1A; [3]) of 99%. It also gave a remaining binding at 0.3 µM (PDPK1; [3]) of 99% and a remaining binding at 0.3 µM (p38-beta; [3]) of 85%.

With CC#CC(=O)N1CC[C@@H](n2c(=O)n(-c3ccc(Oc4ccccc4)cc3)c3c(N)ncnc32)C1 [Tirabrutinib] the remaining binding at 0.3 µM (SRC; [4]) was 95% and the remaining binding at 0.3 µM (ACVRL1; [4]) was 94%.

C=CC(=O)N1CCC([C@@H]2CCNc3c(C(N)=O)c(-c4ccc(Oc5ccccc5)cc4)nn32)CC1 [Zanubrutinib] was tested, and the remaining binding at 0.3 µM (CSNK1G2; [5]) was 88%, the remaining binding at 0.3 µM (MLK1; [5]) was 84% and the remaining binding at 0.3 µM (PKAC-alpha; [5]) was 99%. The remaining binding at 0.3 µM (ACVRL1; [5]) was 75%, the remaining binding at 0.3 µM (CSNK1G1; [5]) was 91% and the remaining binding at 0.3 µM (MRCKA; [5]) was 100%. It also gave a remaining binding at 0.3 µM (MKK7; [5]) of 80%, a remaining binding at 0.3 µM (BMPR1A; [5]) of 90% and a remaining binding at 0.3 µM (CDK7; [5]) of 100%. It also gave a remaining binding at 0.3 µM (PDPK1; [5]) of 100%, a remaining binding at 0.3 µM (GSK3B; [5]) of 74% and a remaining binding at 0.3 µM [1, 5] of 100%. It also gave a remaining binding at 0.3 µM (p38-beta; [5]) of 82%, a remaining binding at 0.3 µM (CHEK1; [5]) of 92% and a remaining binding at 0.3 µM (FGFR4; [5]) of 91%. The remaining binding at 0.3 µM (PRKD2; [5]) was 100%, the remaining binding at 0.3 µM (ASK2; [5]) was 55% and the remaining binding at 0.3 µM (PAK4; [5]) was 85%.
